We go through one substance from patent US20070191422A1 (priority 2003, published 2007).

This test has as its target α7 nAChR subtype (Rattus norvegicus, UniProt Q05941). The test is classed as binding.

Chain of α7 nAChR subtype (Q05941 23-502 limits assumed): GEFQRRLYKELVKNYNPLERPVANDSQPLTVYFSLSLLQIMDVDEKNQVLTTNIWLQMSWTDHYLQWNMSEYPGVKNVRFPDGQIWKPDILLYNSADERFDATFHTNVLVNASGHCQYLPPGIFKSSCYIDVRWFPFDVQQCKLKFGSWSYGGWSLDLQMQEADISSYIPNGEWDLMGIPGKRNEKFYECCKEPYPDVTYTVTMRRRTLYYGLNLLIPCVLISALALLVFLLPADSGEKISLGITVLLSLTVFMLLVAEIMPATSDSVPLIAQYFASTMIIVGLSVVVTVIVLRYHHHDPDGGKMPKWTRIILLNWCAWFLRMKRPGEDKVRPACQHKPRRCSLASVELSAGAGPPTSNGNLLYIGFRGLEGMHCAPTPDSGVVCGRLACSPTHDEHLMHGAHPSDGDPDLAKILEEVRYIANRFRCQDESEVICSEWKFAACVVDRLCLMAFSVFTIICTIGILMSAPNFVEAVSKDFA

As for ^125I-α—Bungarotoxin [^125I-α-BTX], the Kd (in general, the concentration at which binding is half-saturated) was found to be 1.67 nM.
